“And” between values parts separate entries of the source, which are not always exact repeats. Equal entries are not always repeated.

Data set [1] deals with T1, Solute carrier organic anion transporter family member 1B1 (Homo sapiens, UniProt Q9Y6L6).
T1 sequence (Q9Y6L6 whole entry): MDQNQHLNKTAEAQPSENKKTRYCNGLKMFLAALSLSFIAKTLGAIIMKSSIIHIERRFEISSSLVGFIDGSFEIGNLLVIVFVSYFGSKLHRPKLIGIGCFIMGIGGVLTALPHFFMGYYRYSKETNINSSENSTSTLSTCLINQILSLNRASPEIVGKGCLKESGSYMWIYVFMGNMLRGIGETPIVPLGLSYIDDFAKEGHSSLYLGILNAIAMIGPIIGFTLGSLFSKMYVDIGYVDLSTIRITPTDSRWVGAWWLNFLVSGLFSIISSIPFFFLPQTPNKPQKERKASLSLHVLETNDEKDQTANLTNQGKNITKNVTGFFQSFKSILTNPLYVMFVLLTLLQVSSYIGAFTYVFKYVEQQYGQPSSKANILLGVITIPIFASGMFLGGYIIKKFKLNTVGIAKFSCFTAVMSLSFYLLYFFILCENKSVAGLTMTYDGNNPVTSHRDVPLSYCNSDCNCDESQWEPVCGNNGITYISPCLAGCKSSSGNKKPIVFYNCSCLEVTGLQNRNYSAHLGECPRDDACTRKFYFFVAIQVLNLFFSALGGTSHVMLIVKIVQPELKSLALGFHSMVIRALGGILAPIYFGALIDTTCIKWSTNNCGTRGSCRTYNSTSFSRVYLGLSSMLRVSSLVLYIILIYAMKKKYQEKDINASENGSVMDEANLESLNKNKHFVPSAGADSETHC
As to the kind of experiment: Substrate activity at OATP1B1 (unknown origin) expressed in HEK293 cells assessed as ratio of drug uptake in absence of transporter inhibitor,estradiol-17beta-glucuronide to drug uptake in presence of transporter inhibitor, estradiol-17beta-glucuronide by LC-MS/MS analysis. Type of data set: ADME, cell-based.

For another data set, the target named is Cytochrome P450 2C19 (Homo sapiens, UniProt P33261). Put plainly: Inhibition of CYP2C19 in human liver microsomes using mephenytoin as substrate preincubated for 5 mins followed by NADPH addition by LC-MS/MS analysis. It counts as ADME.
Sequence of Cytochrome P450 2C19 (P33261 whole entry): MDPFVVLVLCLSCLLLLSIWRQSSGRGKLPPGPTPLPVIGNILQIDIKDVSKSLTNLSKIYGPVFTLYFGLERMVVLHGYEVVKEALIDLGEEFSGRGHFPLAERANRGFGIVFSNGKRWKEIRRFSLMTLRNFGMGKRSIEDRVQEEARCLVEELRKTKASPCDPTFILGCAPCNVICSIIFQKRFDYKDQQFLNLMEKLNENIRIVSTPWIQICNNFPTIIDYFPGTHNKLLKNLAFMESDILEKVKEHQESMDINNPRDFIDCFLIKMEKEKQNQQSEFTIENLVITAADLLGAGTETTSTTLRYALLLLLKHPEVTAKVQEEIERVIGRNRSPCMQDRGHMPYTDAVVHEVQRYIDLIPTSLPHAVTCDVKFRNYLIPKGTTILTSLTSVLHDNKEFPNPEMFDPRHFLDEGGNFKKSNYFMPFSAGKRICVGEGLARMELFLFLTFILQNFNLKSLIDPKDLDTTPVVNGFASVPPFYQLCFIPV
In a further data set the test system is OATP1B3. Put plainly: Ratio of drug uptake in HEK293 cells transfected with OATP1B3 (unknown origin) in absence of transporter inhibitor, estradiol-17beta-glucuronide to drug uptake in HEK293 cells in absence of transporter inhibitor, estradiol-17beta-glucuronide by LC-MS/MS analysis. It counts as ADME, cell-based. The following applies: human, HEK293 cells transfected with OATP1B3 versus HEK293 cells.

The target of the next data set is Cytochrome P450 2C9 (Homo sapiens, UniProt P11712). As to the kind of experiment: Inhibition of CYP2C9 in human liver microsomes using tolbutamide as substrate preincubated for 5 mins followed by NADPH addition by LC-MS/MS analysis. It counts as ADME. (Microsomes from liver hold many membrane-bound enzymes, among them those of drug oxidation.)
Sequence of Cytochrome P450 2C9 (P11712 whole entry): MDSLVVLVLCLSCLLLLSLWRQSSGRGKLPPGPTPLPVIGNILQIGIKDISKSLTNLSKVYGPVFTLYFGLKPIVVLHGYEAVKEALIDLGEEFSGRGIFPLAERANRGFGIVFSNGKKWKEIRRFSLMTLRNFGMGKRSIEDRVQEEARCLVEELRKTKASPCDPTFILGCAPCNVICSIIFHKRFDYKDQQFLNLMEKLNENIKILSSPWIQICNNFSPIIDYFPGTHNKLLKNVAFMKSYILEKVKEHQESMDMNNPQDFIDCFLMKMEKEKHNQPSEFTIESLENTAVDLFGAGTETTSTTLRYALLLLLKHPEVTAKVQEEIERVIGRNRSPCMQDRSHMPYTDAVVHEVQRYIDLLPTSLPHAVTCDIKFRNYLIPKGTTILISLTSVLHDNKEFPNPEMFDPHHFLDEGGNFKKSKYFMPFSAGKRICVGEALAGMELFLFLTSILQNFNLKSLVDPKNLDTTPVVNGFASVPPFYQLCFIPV
Data set [2] addresses Terminal nucleotidyltransferase 4A (Homo sapiens) (UniProt Q5XG87). As to the kind of experiment: Inhibition of human PAPD7 expressed in HEK293 cells assessed as inhibition of poly-adenylation reaction using P32-labeled RNA oligonucleotides (5'-GCCUUUCAUCUCUAACUGCGAAAAAAAAAA-3') as substrate measured for 3 hrs by phosphor imaging analysis. It counts as cell-based. The following applies: dose 0.37-10 µM.

Data set [3] in a line: Drug concentration in CD-1 mouse liver at 8 mg/kg, po measured after 30 mins by LC-MS/MS analysis. Type of data set: ADME, organism-based. As to conditions: read-out: Ct.
A short description of data set [4]: AUC (last) in CD-1 mouse plasma at 3 mg/kg, iv measured for 24 hrs by LC-MS/MS analysis. It counts as ADME, organism-based. Set-up: route intravenous, time 24 hrs, dose 3 mg/kg.

Sequence of Terminal nucleotidyltransferase 4A (Homo sapiens) (Q5XG87 whole entry): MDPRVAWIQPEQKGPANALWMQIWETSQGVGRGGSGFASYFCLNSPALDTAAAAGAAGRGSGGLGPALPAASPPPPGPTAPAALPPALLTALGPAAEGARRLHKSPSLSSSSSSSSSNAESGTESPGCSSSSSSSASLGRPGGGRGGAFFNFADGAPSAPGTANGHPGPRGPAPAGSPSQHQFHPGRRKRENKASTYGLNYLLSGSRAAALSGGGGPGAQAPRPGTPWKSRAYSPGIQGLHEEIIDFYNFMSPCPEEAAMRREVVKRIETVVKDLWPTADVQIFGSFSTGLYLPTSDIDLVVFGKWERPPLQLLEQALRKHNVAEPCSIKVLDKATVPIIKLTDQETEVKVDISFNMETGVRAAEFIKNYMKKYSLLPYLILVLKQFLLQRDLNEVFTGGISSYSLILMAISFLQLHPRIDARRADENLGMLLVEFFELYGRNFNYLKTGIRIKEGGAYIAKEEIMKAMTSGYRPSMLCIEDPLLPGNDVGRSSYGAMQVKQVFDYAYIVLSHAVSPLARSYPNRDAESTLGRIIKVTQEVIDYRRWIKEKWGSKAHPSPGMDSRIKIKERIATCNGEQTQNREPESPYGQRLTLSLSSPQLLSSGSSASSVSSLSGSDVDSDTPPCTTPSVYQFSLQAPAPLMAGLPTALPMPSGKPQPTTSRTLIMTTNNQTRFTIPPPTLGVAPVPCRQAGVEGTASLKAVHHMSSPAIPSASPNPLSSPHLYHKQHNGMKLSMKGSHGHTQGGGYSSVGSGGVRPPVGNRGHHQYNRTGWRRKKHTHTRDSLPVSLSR

In general, IC50 refers to the concentration needed to halve the response being measured. Higher therefore signals lower potency. A word on the AUC(0-t): it is exposure summed from dosing to a finite time, without extrapolation to infinity. Read a low AUC(0-t) as low exposure. For `COc1cc2c(cc1OCCCCCCC(=O)O)C[C@@H](C(C)C)n1cc(C(=O)O)c(=O)cc1-2`, the Ratio in data set [1] is given as 11.17. In addition, the IC50 against Cytochrome P450 2C19 and against Cytochrome P450 2C9 was > 10 µM throughout. Further, in the data set on OATP1B3, the uptake ratio is 24.8. Also, the inhibition entry in data set [2] is “Dose-Dependent Effect”. Besides, the concentration at 0.5 h in data set [3] is 309 ng/mL and 680 nM. In data set [4], the AUC(0-t) at 24 h amounted to 255 ng·h/mL.

(Values after ChEMBL document CHEMBL4808208, “Hepatoselective Dihydroquinolizinone Bis-acids for HBsAg mRNA Degradation” (ACS Med Chem Lett, 2021).)
